Results as given in patent US5789416A, “N^6 mono heterocyclic substituted adenosine derivatives” (CV Therapeutics, priority 1996, dated 1998).
Where two headings read alike, the source gives them in different places.

Experiments:
Format in all cases: cell-based
adenosine A2 receptors = biological target: T1, adenosine A2 receptors (Rattus norvegicus, UniProt P30543); test: stimulation of cAMP production in PC12 cells (adenosine A2 receptor agonist function); settings: stimulation of cAMP production (A2 agonism)
T1 construct: stimulate cAMP production in PC12 cells, a function of agonist stimulation of adenosine A2 receptors; endogenous in cells; host or cells: PC12 cells
Method: Compounds of this invention prepared according to the method of Example 1 were tested in two functional models specific for adenosine A1 receptor agonist function. The first was the A1 receptor mediated inhibition of isoproterenol stimulated cAMP accumulation in DDT cells. The EC50 of each derivative is shown in Table I. Also shown in Table I is the ability of each derivative to stimulate cAMP production in PC12 cells, a function of agonist stimulation of adenosine A2 receptors. The ratio of the relative potency of each compound in stimulating either an A1 receptor or an A2 receptor effect is termed the selectivity of each compound for the A1 receptor. […] The use of measuring cAMP metabolism as an assay for adenosine A1 receptor function has been previously described (Scammells, P., Baker, S., Belardinelli, L., and Olsson, R., 1994, Substituted 1,3-dipropylxanthines as irreversible antagonists of A1 adenosine receptors. J. Med. Chem 37: […], 1994).

adenosine A1 receptor [1] = biological target: T2, adenosine A1 receptor (Mesocricetus auratus, UniProt A0A1U8BVR4); test: A1 receptor mediated inhibition of isoproterenol stimulated cAMP accumulation in DDT cells; settings: DDT cells; inhibition of isoproterenol stimulated cAMP accumulation (A1 agonism)
T2 construct: endogenous in cells
T2 sequence (A0A1U8BVR4 1-326): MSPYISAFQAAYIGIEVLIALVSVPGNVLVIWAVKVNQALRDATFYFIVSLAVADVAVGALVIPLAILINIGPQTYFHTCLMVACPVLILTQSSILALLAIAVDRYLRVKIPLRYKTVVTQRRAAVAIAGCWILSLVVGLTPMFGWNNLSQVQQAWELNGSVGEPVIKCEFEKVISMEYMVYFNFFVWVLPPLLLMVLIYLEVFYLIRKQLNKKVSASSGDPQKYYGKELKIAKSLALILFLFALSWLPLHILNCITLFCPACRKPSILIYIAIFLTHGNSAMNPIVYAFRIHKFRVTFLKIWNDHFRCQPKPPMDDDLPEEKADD
From the text: (§1) The first was the A1 receptor mediated inhibition of isoproterenol stimulated cAMP accumulation in DDT cells. The EC50 of each derivative is shown in Table I. Also shown in Table I is the ability of each derivative to stimulate cAMP production in PC12 cells, a function of agonist stimulation of adenosine A2 receptors. The ratio of the relative potency of each compound in stimulating either an A1 receptor or an A2 receptor effect is termed the selectivity of each compound for the A1 receptor.

adenosine A1 receptor [2] = test: as above; settings: for A1 /A2: ratio of EC50 in DDT cells (A1) to EC50 in PC12 cells (A2)
From the text: as §1

[3] = ratio of EC50 in PC12 cells (A2) to EC50 in DDT cells (A1), A1 selectivity

T1 sequence (P30543 whole entry): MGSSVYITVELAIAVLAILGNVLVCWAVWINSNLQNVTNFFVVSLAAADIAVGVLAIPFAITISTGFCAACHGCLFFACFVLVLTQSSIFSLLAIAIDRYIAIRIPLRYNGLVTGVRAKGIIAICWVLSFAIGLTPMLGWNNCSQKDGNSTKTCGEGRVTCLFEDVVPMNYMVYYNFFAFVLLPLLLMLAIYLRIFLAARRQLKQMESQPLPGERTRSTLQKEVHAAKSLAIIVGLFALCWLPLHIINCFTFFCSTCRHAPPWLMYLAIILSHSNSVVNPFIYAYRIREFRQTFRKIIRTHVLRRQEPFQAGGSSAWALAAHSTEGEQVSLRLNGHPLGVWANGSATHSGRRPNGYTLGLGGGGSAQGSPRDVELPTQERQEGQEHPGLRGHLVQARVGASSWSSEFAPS

Structure (SMILES)	EC50 (adenosine A2 receptors) [nM]	EC50 (adenosine A1 receptor [1]) [nM]	A2 /A1 (adenosine A1 receptor [2])	A1 /A2 (adenosine A1 receptor [2])	A2 /A1 (adenosine A1 receptor [2]; [3])
OC[C@H]1O[C@@H](n2cnc3c(NC4CCOCC4)ncnc32)[C@H](O)[C@@H]1O [I, 6-(4-aminopyran)-purine Riboside]	970	12	80.0	0.012	–
OC[C@H]1O[C@@H](n2cnc3c(NC4CCOC4)ncnc32)[C@H](O)[C@@H]1O (some centres unmarked) [II, 6-(3-aminotetrahydrofuranyl)purine Riboside]	1400	13	–	0.0093	107.6
OC[C@H]1O[C@@H](n2cnc3c(N[C@@H]4CCOC4)ncnc32)[C@H](O)[C@@H]1O [III]	448	1.08	–	0.0024	414
O=C1NCCCC[C@@H]1Nc1ncnc2c1ncn2[C@@H]1O[C@H](CO)[C@@H](O)[C@H]1O [IV]	181	161	–	0.889	1.12
OC[C@H]1O[C@@H](n2cnc3c(N[C@H]4CCOC4)ncnc32)[C@H](O)[C@@H]1O [V, 6-(3-(S)-aminotetrahydrofuranyl)purine Riboside]	7680	3.4	–	0.00044	2258
